Experimental data reported in patent US20110160303A1, “N-ALKYLCARBONYL-AMINO ACID ESTER AND N-ALKYLCARBONYL-AMINO LACTONE COMPOUNDS AND THEIR USE” (Edward Tak WEI, priority 2005, published 2011).

Tests used:
[1] = Octanol/water partition coefficient; assay type: physicochemical
Method: The octanol/water partition coefficients (given in log P units) for a number of compounds were determined and are shown in Table 7, together with the threshold for cooling on the tongue tested at 40 mM. […] A longer duration of action was not precisely matched with log P values.

oral cavity = experiment: Oral cavity test, substance placed on dorsal surface of the tongue; assay type: in vivo, human; settings: for cooling sensation at the back of the throat: Study 7, 2 mg per dose; for sensory irritation in the mouth: Study 7, same test conditions
Method: The subject is instructed to close and hold the substance in the mouth for at least 10 seconds and not to swallow. The description of sensations is then recorded at 5 minute intervals.
The compounds of Formula (1) and (2) are white crystalline solids at room temperatures. These compounds were tested as such, or mixed 1:1 with powdered or granulated sugar. The test substances were applied at 1 to 5 mg on the mid-point of the dorsal surface of the tongue using a metal spatula or a plastic applicator. After depositing the test substance on the tongue, the subject was instructed to keep the mouth closed and allow the fluids of the mouth to inter-mix with the test substance and to distribute it to the back of the mouth (oropharynx). The presence and duration of subjective sensations from the mouth was then noted.
In normal subjects, the effects of the D-Ala methyl and ethyl ester compounds falling within Formula (1) ((R)-2-[((1R,2S,5R)-2-isopropyl-5-methyl-cyclohexanecarbonyl)-amino]-propionic acid methyl or ethyl ester)) were examined. Three doses of 1, 2 and 4 mg per application were examined and compared to a similar dose of the L-Ala methyl or ester analog ((S)-2-[((1R,2S,5R)-2-isopropyl-5-methyl-cyclohexanecarbonyl)-amino]-propionic acid methyl or ethyl ester). At the 2 or 4 mg dose, all compounds produced pleasant and robust cooling sensations on the tongue, extending down to the back of throat, and lasted for about 30 minutes and longer. The onset effect was usually within 30 seconds of application.

skin above the upper lip = experiment: Cooling sensation on facial skin, ointment applied to skin above the upper lip; assay type: in vivo, human; design: key to refreshing cooling and absence of skin irritation or eye irritation (“perfect cool”): (*) denotes compounds with refreshing cooling and absence of skin irritation or eye irritation after facial skin or periorbital applications; a “perfect cool.”; settings: for Duration of Skin Cooling: 40 mM (1% wt/vol) ointment; for Duration of Skin Cooling / Duration of Action On-Off (minutes): On (onset) / Duration of Action On-Off (minutes): duration (offset minus onset) / Duration of Action On-Off (minutes): Off (offset): skin above upper lip; for Duration of Action On-Off (minutes): On (onset): 40 mM (~1% wt/vol) Aquaphor ointment, 40 to 70 mg, time to reach 2 units of coolness; for Duration of Action On-Off (minutes): duration (offset minus onset) / Duration of Action On-Off (minutes): Off (offset): 40 mM Aquaphor ointment; for Duration of Action On-Off (minutes): Off (offset): time when coolness drops below 2 units; for refreshing cooling and absence of skin irritation or eye irritation (“perfect cool”): after facial skin or periorbital applications
Excerpt: A reliable place for topical application is the skin above the upper lip (above the vermilion border of the lips), on the philtrum, lateral to the philtrum until the nasolabial folds, and on the lower nostrils (subnasale). This part of the face is known to be densely innervated with cold receptors, second only to the surfaces of the eyeball and anogenitalia. A second location is on or below the malar eminence (cheekbone). The skin above the cheekbone is thicker than above the lips, and therefore has a higher threshold for activation. At both loci, tingling, cool and cold sensations in the skin may be experienced and rated for time of onset and intensity.
The intensity of the subjective skin sensation is rated as 0, 1, 2 or 3 with: 0 as no change; 1 as slight coolness, cold, or tingling; 2 as clear-cut signal of coolness, cold, or tingling; and 3 as robust cooling or cold. The intervals for recording sensations are 5 to 10 minutes, until two successive zeroes are obtained. The results (shown in FIGS. 1 and 2) are averaged values of 4 to 6 separate trials in the same individual. The data are plotted using SigmaPlot® (Systat Software, Point Richmond Calif.) and a smoothing function with a negative exponential was used for analysis and statistical fit of the results. Confirmatory trials of cooling action of the long-acting NACE compounds were obtained in 2 to 4 individuals but not quantified for some because of the large number of chemicals that were evaluated.
The onset of drug action is taken as the time to reach 2 units of coolness intensity, and offset of drug action is the time when coolness intensity drops below 2, after previously surpassing 2 units. The duration of cooling action is defined as the offset time minus the onset time. […] The quality of the sensation is noted, for example, as pure refreshing coolness, or if the sensation is accompanied by irritation (stinging or burning). The quality of the sensation is not rated for intensity.
For bioassay on the skin, approximately 30 mg was stirred and dissolved in 3 g of warm liquid Aquaphor® ointment to a yield a 40 mM (˜1% wt/vol) ointment. The exact amount was adjusted so that the molar equivalent was about 35 to 40 mM. After cooling, 40 to 70 mg of the solid ointment was placed on the tip of a plastic stick and applied to the skin above the upper lip, on the philtrum, and lateral to the philtrum, up to the nasolabial folds, of test subjects and the onset and duration of cooling sensations noted.
The intensity of the subjective skin sensation was rated as 0, 1, 2 or 3 with: 0 as no change; 1 as slight coolness, cold, or tingling; 2 as clear signal of coolness, cold, or tingling; and 3 as robust cooling or cold. The intervals for recording sensations were 5 to 10 minutes, until two successive zeroes were obtained. The results (shown in FIGS. 1 and 2) are averaged values of 4 to 6 separate trials in the same individual. The data are plotted using SigmaPlot® (Systat Software, Point Richmond, Calif., USA) and a smoothing function with a negative exponential was used for analysis and statistical fit of the results.
The onset of drug action was taken as the time to reach 2 units of coolness intensity, and offset of drug action was the time when coolness intensity drops below 2, after previously surpassing 2 units. The duration of cooling action was defined as the offset time minus the onset time. […] The quality of the sensation was also noted: such as pure refreshing coolness, or if the sensation was accompanied by irritation (stinging or burning). The quality of the sensation was not rated for intensity.
Test compounds were singly applied to the skin above the upper lips at a 40 to 70 mg dose of a 1% wt/vol ointment.

tongue = experiment: Threshold for cooling on the tongue; assay type: in vivo, human; settings: for Threshold tongue: threshold for cooling on the tongue
Method: Watson et al. (U.S. Pat. No. 4,178,459) tested the properties of N-substituted p-menthane carboxamides on volunteers by putting filter paper (1×1 cm), impregnated with a known amount of compound, onto the dorsal surface of the tongue of the test subject. After 30 seconds, the subject was required to report presence or absence of a cooling effect. […] The average threshold of (−)-menthol for 6 subjects was 0.25 μg, but there was a 100-fold variation in individual sensitivity. As noted above, coolness signals detected from the dorsal surface of the tongue may be confounded by gustatory, olfactory, and other variables, as well as by dilution from saliva. The octanol/water partition coefficients (given in log P units) for a number of compounds were determined and are shown in Table 7, together with the threshold for cooling on the tongue tested at 40 mM. […] A longer duration of action was not precisely matched with log P values.

periorbital area = experiment: Study 4: 1% ointment applied bilaterally to the periorbital area; assay type: in vivo, human; settings: periorbital application
Excerpt: A 1% preparation of 2-isopropyl-5-methyl-cyclohexanecarbonyl D-alanine methyl ester in Aquaphor® ointment was applied bilaterally to the periorbital area of four individuals. […] This alerting effect lasted for about one hour. This experiment was then repeated three days later in the evening with the same individuals whose occupations required daylong activities before a computer screen. Again, application of the ointment about the periorbital area was reported to relieve fatigue, enhance visual acuity, and to increase attention span and focus. Sensations of refreshment and improved mood were also noted.

SMILES | logP [1] | cooling sensation at the back of the throat (oral cavity) | Duration of Skin Cooling (skin above the upper lip) [h] | Duration of Action On-Off (minutes): On (onset) (skin above the upper lip) [min] | Duration of Action On-Off (minutes): duration (offset minus onset) (skin above the upper lip) [min] | Duration of Action On-Off (minutes): Off (offset) (skin above the upper lip) [min] | refreshing cooling and absence of skin irritation or eye irritation (“perfect cool”) (skin above the upper lip) | Threshold tongue (tongue) [µg] | sensory irritation in the mouth (oral cavity) | times less potent than WS-11 on the tongue threshold test (tongue; in vivo) [times] | Log P [1] | duration of action relative to WS-11 (skin above the upper lip; in vivo) | irritation of skin and eye surfaces (periorbital area)
CC(C)[C@@H]1CC[C@@H](C)C[C@H]1C(=O)NC1CCOC1=O (mixture of isomers) [racemic Hsl, (1R,2S,5R)-2-isopropyl-5-methyl-cyclohexanecarboxylic acid (2-oxo-tetrahydro-furan-3-yl)-amide] | 2.5 | robust and prolonged cooling | 1.4 | 2 | 84 | 86 | racemic Hsl (*) | – | – | – | – | – | –
CC(C)[C@@H]1CC[C@@H](C)C[C@H]1C(=O)N[C@@H]1CCOC1=O [D-Hsl, (1R,2S,5R)-2-isopropyl-5-methyl-cyclohexanecarboxylic acid ((R)-2-oxo-tetrahydro-furan-3-yl)-amide] | 2.5 | robust and prolonged cooling | 1.3 | 2 | 78 | 80 | D-Hsl (*) | – | – | – | – | – | –
CCOC(=O)CNC(=O)[C@@H]1C[C@H](C)CC[C@H]1C(C)C [Gly Et Ester (WS-5), N-p-menthanecarbonyl glycine ethyl ester, reference compound] | 2.9 | – | 0.5 | 4 | 33 | 37 | Gly Et Ester (WS-5) (*) | 0.2 | some sensory irritation | – | – | – | –
CC(C)[C@@H]1CC[C@@H](C)C[C@H]1C(=O)N[C@H]1CCOC1=O [L-Hsl, (1R,2S,5R)-2-isopropyl-5-methyl-cyclohexanecarboxylic acid (S)-(2-oxo-tetrahydro-furan-3-yl)-amide] | 2.5 | robust and prolonged cooling | 1.4 | 2 | 85 | 87 | L-Hsl (*) | – | – | – | – | – | –
CCOC(=O)CN(C)C(=O)C1CC(C)CCC1C(C)C (centres unmarked) [Sar Et Ester] | – | – | 1.0 | 2 | 63 | 65 | Sar Et Ester (*) | 0.8 | some sensory irritation | 2.7 | 2.9 | five | –
CCNC(=O)C1CC(C)CCC1C(C)C (centres unmarked) [WS-3, reference compound] | – | – | – | 5 | – | 23 | – | 0.2 | – | – | 3.7 | – | significant skin and eye irritation
CC1CCC(C(C)C)C(C(=O)NC(C)(C)CO)C1 (centres unmarked) [WS-11, reference compound] | – | – | 0.2 | 8 | 10 | 18 | – | 0.3 | – | – | 2.9 | – | significant skin and eye irritation
CC1CCC(C(C)C)C(C(=O)NC(C)(C)C)C1 (centres unmarked) [WS-14, reference compound] | – | – | 0.1 | 15 | 8 | 23 | – | 0.4 | – | – | 4.5 | – | significant skin and eye irritation
CNC(=O)C(C)(C(C)C)C(C)C [WS-23, N-2,3-trimethyl-2-isopropylbutanamide, reference compound] | – | – | – | – | – | – | – | – | – | – | – | – | significant skin and eye irritation
CCOC(=O)CCNC(=O)C1CC(C)CCC1C(C)C (stereo not drawn) [β-Ala Et Ester] | – | – | 1.4 | 3 | 87 | 90 | – | 1.5 | – | – | 3.1 | – | –
